# Measurements: ChEMBL document CHEMBL5131467, “Multivalent peptide dendrimers inhibit the fusion of viral-cellular membranes and the cellular NF-κB signaling pathway” (Eur J Med Chem, 2022)
# Calls of active or inactive are those of the source. No cut-off for these calls is given here. Where a SMILES comes first, the peptide text is derived from it. Bridges are numbered along the chain shown (N, C = ends). Roman numbers before positions name the chains, in order. Side-chain parts run from the residue outwards. The star is where a group is joined. Fmoc = O=C(OCC1c2ccccc2-c2ccccc21)*
# Tests used:
# [1] = tested on: Influenza A virus; assay: Antiviral activity against Influenza A virus (A/Puerto Rico/8/1934(H1N1)) infected in MDCK cells assessed as reduction in virus induced cytopathic effect after infection incubated for 1 hr by MTT assay; assay type: functional, organism-based
# [2] = tested on: Influenza A virus; assay: Induction of morphological changes in Influenza A Puerto Rico/8/1934/H1N1 assessed as increase in broken edge of the virus incubated for 30 mins by transmission electron microscopic analysis; assay type: functional, organism-based; settings: dose 10-50 µg/ml, DDE = dose-dependent effect
# [3] = tested on: Influenza A virus; assay: Antiviral activity against Influenza A virus A/FM/1/47 infected in MDCK cells incubated for 1 hr by MTT assay; assay type: functional, organism-based; settings: A/FM/1/47, MDCK
# [4] = tested on: RAW264.7; assay: Anti-inflammatory activity against Influenza A virus (A/Puerto Rico/8/1934(H1N1)) s induced mouse RAW264.7 cells assessed as suppression of NF kappa B expression level 1.5 ug/ml by luciferase reporter assay; assay type: functional, cell-based; settings: dose 1.5 µg/ml
# [5] = tested on: Mus musculus; assay: Antiviral activity against Kunming mouse infected with Influenza A virus (A/Puerto Rico/8/1934(H1N1)) assessed as survival rate at 5 mg/kg, ip administered once a day for 5 days relative to control; assay type: functional; settings: 120 h, time 5 day
# [6] = tested on: RAW264.7; assay: Cytotoxicity against mouse RAW264.7 cells assessed as cell viability at lesser than 100 ug/ml by CCK-8 assay; assay type: toxicity, cell-based; settings: dose < 100 µg/ml
# [7] = tested on: Mus musculus; assay: Antiviral activity against Kunming mouse infected with Influenza A virus (A/Puerto Rico/8/1934(H1N1)) assessed as increase in body weight at 5 mg/kg, ip measured after 15 days (reference value: 178.7%); assay type: functional; settings: time 15 day
# [8] = Cmax in Kunming mouse at 10 mg/kg, ip by HPLC analysis; assay type: ADME, organism-based; parameters: dose 10 mg/kg, route ip; settings: in vivo
# [9] = tested on: RAW264.7; assay: Anti-inflammatory activity against mouse RAW264.7 cells assessed as reduction in Influenza A virus (A/Puerto Rico/8/1934(H1N1)) induced TNF alpha level at 1 ug/ml by ELISA method; assay type: functional; settings: dose 1 µg/ml
# [10] = tested on: RAW264.7; assay: Anti-inflammatory activity against LPS induced mouse RAW264.7 cells assessed as suppression of NF kappa B expression level at 1.5 ug/ml by luciferase reporter assay; assay type: functional, cell-based; settings: dose 1.5 µg/ml
# [11] = tested on: RAW264.7; assay: Anti-inflammatory activity against mouse RAW264.7 cells assessed as reduction in influenza A virus induced IL-1 beta level at 1 ug/ml by qRT- PCR; assay type: functional, cell-based; settings: dose 1.0 µg/ml
# [12] = Cytotoxicity against MDCK cells incubated for 1 hr by MTT assay; assay type: toxicity, cell-based, Canis lupus familiaris; settings: dog
# [13] = tested on: Influenza A virus; assay: Antiviral activity against Influenza A Puerto Rico/8/1934/H1N1 infected in human A549 cells assessed as inhibition of viral replication after 24 hrs by hemagglutination assay; assay type: functional, organism-based
# [14] = tested on: Mus musculus; assay: Antiviral activity against Kunming mouse infected with Influenza A virus (A/Puerto Rico/8/1934(H1N1)) assessed as survival rate at 1.25 mg/kg, ip administered twice a day with a time interval of 12 hrs for 4 days relative to control; assay type: functional; settings: 96 h, time 4 day
# [15] = tested on: Mus musculus; assay: Antiviral activity against Kunming mouse infected with Influenza A virus (A/Puerto Rico/8/1934(H1N1)) assessed as survival rate at 5 mg/kg, ip administered twice a day with a time interval of 12 hrs for 4 days relative to control; assay type: functional; settings: 96 h, time 4 day
# [16] = tested on: Influenza A virus; assay: Antiviral activity against influenza A/Thailand/Kan353/2004 infected in MDCK cells assessed as inhibition of syncytium formation at 5 ug/ml incubated for 3 hrs by giemsa staining based assay relative to control; assay type: functional; parameters: scale not given: the % may be the effect or the level left; settings: dose 5 µg/ml
# [17] = Cytotoxicity against MDCK cells by CCK-8 assay; assay type: toxicity, cell-based, Canis lupus familiaris; settings: dog
# [18] = tested on: RAW264.7; assay: Anti-inflammatory activity against mouse RAW264.7 cells assessed as reduction in influenza A virus induced TNF alpha level at 1 ug/ml by qRT- PCR; assay type: functional, cell-based; settings: dose 1.0 µg/ml
# [19] = tested on: Influenza B virus; assay: Antiviral activity against Influenza B virus 699[…] clinical isolate infected in MDCK cells incubated for 1 hr by MTT assay; assay type: functional, organism-based
# [20] = tested on: Influenza A virus; assay: Antiviral activity against Influenza A virus (A/Puerto Rico/8/1934(H1N1)) infected in MDCK cells after treatment incubated for 1 hr by MTT assay; assay type: functional, organism-based
# [21] = tested on: Influenza A virus; assay: Antiviral activity against Influenza A virus (A/Puerto Rico/8/1934(H1N1)) infected in MDCK cells assessed as reduction in viral nucleoprotein expression level at 2 ug/ml pretreated with compound measured after 24 hrs post infection by indirect immunofluorescence assay; assay type: functional, organism-based; settings: dose 2.0 µg/ml
# [22] = tested on: Influenza A virus; assay: Antiviral activity against Influenza A virus 699(H3) clinical isolate infected in MDCK cells incubated for 1 hr by MTT assay; assay type: functional, organism-based
# [23] = tested on: Erythrocyte; assay: Hemolytic activity in chicken erythrocytes at up to 50 uM pre-treated with virus for 30 mins followed by addition of cell measured after 30 mins by microplate reader assay; assay type: toxicity, cell-based, Gallus gallus; settings: 0.5 h
# [24] = tested on: RAW264.7; assay: Anti-inflammatory activity against mouse RAW264.7 cells assessed as reduction in LPS induced TNF alpha level at 5 ug/ml by ELISA method; assay type: functional; settings: dose 5 µg/ml
# [25] = tested on: RAW264.7; assay: Anti-inflammatory activity against mouse RAW264.7 cells assessed as reduction in Influenza A virus (A/Puerto Rico/8/1934(H1N1)) induced TNF alpha level at 5 ug/ml by ELISA method; assay type: functional; settings: dose 5 µg/ml
# [26] = Half life in Kunming mouse at 10 mg/kg, ip by HPLC analysis; assay type: ADME, organism-based; settings: in vivo
# [27] = tested on: Mus musculus; assay: Antiviral activity against Kunming mouse infected with Influenza A virus (A/Puerto Rico/8/1934(H1N1)) assessed as reduction in viral titer in lung homogenate at 5 mg/kg, ip administered twice a day for 3 days after 24 hrs of viral infection; assay type: functional, organism-based; settings: time 3.0 day
# [28] = tested on: Influenza A virus; assay: Antiviral activity against Influenza A virus (A/Puerto Rico/8/1934(H1N1)) infected in MDCK cells assessed as reduction in viral nucleoprotein expression level at 2 ug/ml pre-treated with virus measured after 24 hrs post infection by indirect immunofluorescence assay; assay type: functional, organism-based; settings: dose 2.0 µg/ml
# [29] = tested on: Influenza A virus; assay: Antiviral activity against Influenza A virus (A/Puerto Rico/8/1934(H1N1)) infected in MDCK cells assessed as reduction in virus induced cytopathic effect pretreated with compound incubated for 1 hrs by MTT assay; assay type: functional, organism-based
# [30] = tested on: RAW264.7; assay: Anti-inflammatory activity against mouse RAW264.7 cells assessed as reduction in LPS induced IL-1 beta level at 1 ug/ml by qRT-PCR analysis; assay type: functional, cell-based; settings: dose 1.0 µg/ml
# [31] = tested on: Influenza A virus; assay: Antiviral activity against Influenza A virus (A/Puerto Rico/8/1934(H1N1)) infected in MDCK cells assessed as reduction in HA mRNA level at 1 ug/ml measured after 24 hrs post infection by qRT-PCR analysis; assay type: functional, organism-based; settings: dose 1.0 µg/ml
# [32] = tested on: Mus musculus; assay: Antiviral activity against Kunming mouse infected with Influenza A virus (A/Puerto Rico/8/1934(H1N1)) assessed as recovery in body weight at 1.25 mg/kg, ip administered twice a day with a time interval of 12 hrs for 4 days measured from day 8 upto 15 days (reference value: 17.58 g); assay type: functional; settings: time 15 day
# [33] = AUC in Kunming mouse at 10 mg/kg, ip by HPLC analysis; assay type: ADME, organism-based; parameters: dose 10 mg/kg, route ip; settings: in vivo
# [34] = tested on: RAW264.7; assay: Anti-inflammatory activity against mouse RAW264.7 cells assessed as reduction in LPS induced TNF alpha level at 1 ug/ml by qRT-PCR analysis; assay type: functional, cell-based; settings: dose 1.0 µg/ml
smiles,measurement,setting,value
NCCCC[C@H](NC(=O)OCC1c2ccccc2-c2ccccc21)C(=O)N[C@@H](CCCCN)C(=O)N[C@@H](Cc1c[nH]c2ccccc12)C(=O)N[C@@H](CCCCN)C(=O)NCCCC[C@H](NC(=O)[C@H](CCCCN)NC(=O)[C@H](Cc1c[nH]c2ccccc12)NC(=O)[C@H](CCCCN)NC(=O)[C@H](CCCCN)NC(=O)OCC1c2ccccc2-c2ccccc21)C(=O)NCCCC[C@H](NC(=O)[C@H](CCCCNC(=O)[C@H](CCCCN)NC(=O)[C@H](Cc1c[nH]c2ccccc12)NC(=O)[C@H](CCCCN)NC(=O)[C@H](CCCCN)NC(=O)OCC1c2ccccc2-c2ccccc21)NC(=O)[C@H](CCCCN)NC(=O)[C@H](Cc1c[nH]c2ccccc12)NC(=O)[C@H](CCCCN)NC(=O)[C@H](CCCCN)NC(=O)OCC1c2ccccc2-c2ccccc21)C(=O)NCC(=O)O (I: Fmoc-KKWKK([Lys-Trp-Lys-Lys-Fmoc])KG-OH / II: Fmoc-KKWKK([Lys-Trp-Lys-Lys-Fmoc]); amide I:6-II:C),IC50,[1],11.6 µM
same,Activity,[2],Dde
same,IC50,[3],0.17 µM
same,Activity,[4],Active
same,survival at 5 mg/kg,[5],20%
same,Activity,[6],Non-Toxic
same,Activity,[7],129.4%
same,Cmax,[8],5020 ng/mL
same,Activity,[9],203 pg/mL
same,Activity,[10],Active
same,Activity,[11],Active
same,CC50 at 1 h,[12],41.9 µM
same,Activity,[13],Active
same,survival at 1.25 mg/kg,[14],20%
same,survival at 5 mg/kg,[15],33%
same,Activity,[16],90%
same,CC50,[17],37.8 µM
same,Activity,[18],Active
same,IC50,[19],0.32 µM
same,IC50,[20],0.32 µM
same,Activity,[21],Active
same,IC50,[22],0.12 µM
same,Activity,[23],Toxic
same,Activity,[24],280.5 pg/mL
same,Activity,[25],328.4 pg/mL
same,half-life,[26],2.88 h
same,Activity,[27],Active
same,Activity,[28],Active
same,IC50,[29],0.24 µM
same,Activity,[30],Active
same,Activity,[31],Active
same,Activity,[32],25.84 g
same,AUC,[33],11900 ng·h/mL
same,Activity,[34],Active
